In paper PMC9486808 (ACS Chemical Biology, 2022):
“And” between values parts separate entries of the source, which are not always exact repeats. Equal entries are not always repeated. Starred links: 1 amine or outer side, 2 acyl side, 3 side chain; linkers in the order of their positions; H or OH if unused. Positions of bridges follow the written chain, without caps; N, C: chain ends. Non-standard residues stand in square brackets, D forms with d. Residues, ends and D or L forms follow the SMILES beside them. Groups on a side chain read outwards from the residue. *: point of attachment. X1 = O=C([C@H](CCn1nnc2c1-c1ccccc1CN([*:3])c1ccccc1-2)N[*:1])[*:2]; 6FAM = O=C1OC2(c3ccc(O)cc3Oc3cc(O)ccc32)c2cc(C(=O)*)ccc21; AEEA = NCCOCCOCC(=O)O; Ahx = NCCCCCC(=O)O

Key:
H1 HA = H1 HA (Influenza A virus, UniProt C3W5S1); assay type: binding, Influenza A virus A/California/04/2009 (H1N1)
H1 ectodomain = H1 ectodomain (Influenza A virus, UniProt C3W5S1); assay: biochemical; assay type: binding, Influenza A virus A/California/04/2009 (H1N1)
Sequence of H1 ectodomain (C3W5S1 entry or part of it, added parts left off): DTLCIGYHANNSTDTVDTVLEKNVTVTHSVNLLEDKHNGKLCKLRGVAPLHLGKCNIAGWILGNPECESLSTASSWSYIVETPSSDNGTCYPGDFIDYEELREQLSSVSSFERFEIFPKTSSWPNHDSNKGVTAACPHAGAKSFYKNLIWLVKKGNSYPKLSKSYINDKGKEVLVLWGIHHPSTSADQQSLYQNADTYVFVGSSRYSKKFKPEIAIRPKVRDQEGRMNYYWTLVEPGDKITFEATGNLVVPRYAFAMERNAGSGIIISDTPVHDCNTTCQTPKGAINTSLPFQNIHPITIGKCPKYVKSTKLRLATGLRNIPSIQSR

[1] = target: H1 ectodomain of A/California/04/2009 (H1N1) (Influenza A virus, UniProt C3W5S1); assay type: binding, Influenza A virus A/California/04/2009 (H1N1)
Sequence of H1 ectodomain of A/California/04/2009 (H1N1) (C3W5S1 entry or part of it, added parts left off): as above

[2] = system: H1N1pdm09 (A/Netherlands/602/2009)
[3] = system: H1N1pdm09 (A/Netherlands/602/2009); assay type: cell-based, Influenza A virus
[4] = system: H1N1pr8 (A/PR8/8/34/Mount Sinai); assay type: cell-based, Influenza A virus
[5] = system: H3N1 virus carrying H3 HA of A/Bilthoven/1761/76 (H3N2) in the H1N1pr8 background; assay type: cell-based, Influenza A virus
[6] = system: H5N1 virus carrying H5 HA of A/duck/Hunan/795/2002 in the H1N1pr8 genetic background; settings: 16 h
in vitro = settings: HeLa R19 cells and MDCKI cells

In the case of Cyclo(Ac-YSYFDVNTIFWFSPFC)CG-NH2 [S9], the “ΔTm (°C), crude peptide” value (H1 HA) is reported as 0.0 °C.
With `CC[C@H](C)[C@@H]1NC(=O)[C@H](CCCCN)NC(=O)[C@H](CO)NC(=O)[C@H](Cc2c[nH]c3ccccc23)NC(=O)[C@H](Cc2ccc(O)cc2)NC(=O)[C@H]([C@@H](C)CC)NC(=O)[C@H](CCCCN)NC(=O)[C@H](CC(C)C)NC(=O)[C@@H](Cc2ccc(O)cc2)NC(=O)CSC[C@@H](C(=O)NCCOCCOCC(=O)N[C@@H](CCn2nnc3c2-c2ccccc2CN(C(=O)CCCCCNC(=O)c2ccc4c(c2)C2(OC4=O)c4ccc(O)cc4Oc4cc(O)ccc42)c2ccccc2-3)C(=O)NCC(=O)N[C@@H](CC(=O)O)C(=O)N[C@@H](Cc2ccc(O)cc2)C(=O)N[C@@H](CCCCN)C(=O)N[C@@H](CC(=O)O)C(=O)N[C@@H](CC(=O)O)C(=O)N[C@@H](CC(=O)O)C(=O)N[C@@H](CC(=O)O)C(=O)N[C@@H](CCCCN)C(=O)NCC(N)=O)NC(=O)[C@H](Cc2c[nH]c3ccccc23)NC(=O)[C@H](CCC(=O)O)NC(=O)[C@H](CO)NC(=O)[C@H](C(C)C)NC(=O)[C@H](CC(C)C)NC(=O)CNC(=O)[C@H](Cc2c[nH]cn2)NC1=O` [S3FAM] ({CH2CO}-[dY]LKIYWSKIHGLVSEWC[AEEA][X1]([Ahx-6FAM])GDYKDDDDKG-NH2; thioether N-17) the Hillslope (H1 ectodomain) was 1.02 and 0.94.
In the case of Cyclo(Ac-yTYYVLLQRWPPVWAPC)G-NH2 [B1], the “ΔTm (°C), crude peptide” value (H1 HA) is reported as 2.0 °C, the “Binding region in the HA stem (HDX-MS)” value [1] is reported as “aa 369–387” and the “Inhibition of infection at a single concentration” value [2] is reported as “strong inhibition of infection”.
For `CC(C)[C@@H]1NC(=O)[C@H](Cc2c[nH]c3ccccc23)NC(=O)[C@H](CCCNC(=N)N)NC(=O)[C@H](Cc2ccc(O)cc2)NC(=O)CSC[C@@H](C(=O)NCCOCCOCC(=O)N[C@@H](CCn2nnc3c2-c2ccccc2CN(C(=O)CCCCCNC(=O)c2ccc4c(c2)C2(OC4=O)c4ccc(O)cc4Oc4cc(O)ccc42)c2ccccc2-3)C(=O)NCC(=O)N[C@@H](CC(=O)O)C(=O)N[C@@H](Cc2ccc(O)cc2)C(=O)N[C@@H](CCCCN)C(=O)N[C@@H](CC(=O)O)C(=O)N[C@@H](CC(=O)O)C(=O)N[C@@H](CC(=O)O)C(=O)N[C@@H](CC(=O)O)C(=O)N[C@@H](CCCCN)C(=O)NCC(N)=O)NC(=O)[C@H](C(C)C)NC(=O)[C@H](C(C)C)NC(=O)[C@H](Cc2ccccc2)NC(=O)[C@H](Cc2ccc(O)cc2)NC(=O)[C@@H]2CCCN2C(=O)[C@H](CCC(=O)O)NC(=O)[C@H](CO)NC(=O)[C@H](Cc2ccccc2)NC(=O)[C@H](Cc2ccccc2)NC(=O)[C@H](CO)NC(=O)[C@H]([C@@H](C)O)NC(=O)[C@H](Cc2c[nH]c3ccccc23)NC1=O` [L4FAM] ({CH2CO}-YRWVWTSFFSEPYFVVC[AEEA][X1]([Ahx-6FAM])GDYKDDDDKG-NH2; thioether N-17), the Hillslope (H1 ectodomain) was 0.96 and 0.76.
For Cyclo(Ac-yRQWFYLGKYYC)TWSCCG-NH2 [S4], the “ΔTm (°C), crude peptide” value (H1 HA) was 0.0 °C.
With Cyclo(Ac-yRVFNISWDGEYRSWWC)G-NH2 [B3] the “ΔTm (°C), crude peptide” value (H1 HA) was 0.4 °C.
With Cyclo(Ac-YVQIFDRYGIYSGKWSC)G-NH2 [B8] the “ΔTm (°C), crude peptide” value (H1 HA) was 1.0 °C.
In the case of Cyclo(Ac-ySYFIWANFQTEPYFVC)G-NH2 [B2], the “ΔTm (°C), crude peptide” value (H1 HA) is reported as 0.6 °C, the “Binding region in the HA stem (HDX-MS)” value [1] is reported as “aa 369–387” and the “Inhibition of infection at a single concentration” value [2] is reported as “strong inhibition of infection”.
In the case of Cyclo(Ac-yIRLFWINGNLVSEWNC)G-NH2 [S2], the “ΔTm (°C), crude peptide” value (H1 HA) is reported as 4.4 °C, the “Binding region in the HA stem (HDX-MS)” value [1] is reported as “aa 369–387” and the “Inhibition of infection at a single concentration” value [2] is reported as “strong inhibition of infection”.
In the case of Cyclo(Ac-yFLC)TKWNYGRWYLFYCG-NH2 [R1], the “ΔTm (°C), crude peptide” value (H1 HA) is reported as 1.4 °C.
With Cyclo(Ac-yVIAIRPFSQLCWRWVC)G-NH2 [S7] the “ΔTm (°C), crude peptide” value (H1 HA) was 0.4 °C.
For Cyclo(Ac-YRFLWSSFSSQPSWVHC)G-NH2 [B5], the “ΔTm (°C), crude peptide” value (H1 HA) was 1.4 °C.
For Cyclo(Ac-yFVNWYWHGEKLFYRYC)G-NH2 [R2], the “ΔTm (°C), crude peptide” value (H1 HA) was 2.2 °C.
Cyclo(Ac-YYKALWINATFYQSLVC)G-NH2 [R5] showed a ΔTm (°C), crude peptide (H1 HA) of 1.2 °C.
With Cyclo(Ac-yVKIVWFEGTLNTTWFC)G-NH2 [S6] the “ΔTm (°C), crude peptide” value (H1 HA) was 1.6 °C.
In the case of `CC(C)C[C@H](NC(=O)[C@@H]1CSCC(=O)N[C@@H](Cc2ccc(O)cc2)C(=O)N[C@@H](Cc2c[nH]c3ccccc23)C(=O)N[C@@H](Cc2c[nH]cn2)C(=O)N[C@@H](CCCCN)C(=O)N[C@@H](CC(N)=O)C(=O)N[C@@H](CCCCN)C(=O)N[C@@H](Cc2ccc(O)cc2)C(=O)N[C@@H](C(C)C)C(=O)N[C@@H](CC(C)C)C(=O)N[C@@H]([C@@H](C)O)C(=O)N[C@@H](Cc2ccc(O)cc2)C(=O)N[C@@H](CO)C(=O)N1)C(=O)N[C@@H](Cc1ccccc1)C(=O)N[C@@H](C)C(=O)N[C@@H](C)C(=O)NCC(N)=O` [L2] ({CH2CO}-YWHKNKYVLTYSCLFAAG-NH2; thioether N-13), the Kd (H1 ectodomain) is reported as 2.4 nM, the ΔTm (°C), purified peptide (H1 HA) is reported as 1 °C and the “Inhibition of infection (infected cells relative to untreated control)” value [3] is reported as “strongly inhibited infection”. For the same compound, the “Inhibition of infection (infected cells relative to untreated control)” value [4] was “strongly inhibited infection”, the “Inhibition of infection (infected cells relative to untreated control)” value [5] was “fell short of inhibiting” and the “Binding region in the HA stem (HDX-MS)” value [1] was “aa 369–387”. The “Inhibition of infection at a single concentration” value [2] was “strong inhibition of infection”, the IC50 ([2]; 16 h) was 69 ± 8.3 nM and the IC50 [6] was 1050 ± 300 nM. For the same compound, the CC50 at 72 h (in vitro) was greater than 5000 nM.
For Cyclo(Ac-yIVLAWKGHYLESRWTC)G-NH2 [S8], the “ΔTm (°C), crude peptide” value (H1 HA) was 1.6 °C.
In the case of `CC(C)C[C@H](NC(=O)[C@@H]1CSCC(=O)N[C@@H](Cc2ccc(O)cc2)C(=O)N[C@@H](Cc2c[nH]c3ccccc23)C(=O)N[C@@H](Cc2c[nH]cn2)C(=O)N[C@@H](CCCCN)C(=O)N[C@@H](CC(N)=O)C(=O)N[C@@H](CCCCN)C(=O)N[C@@H](Cc2ccc(O)cc2)C(=O)N[C@@H](C(C)C)C(=O)N[C@@H](CC(C)C)C(=O)N[C@@H]([C@@H](C)O)C(=O)N[C@@H](Cc2ccc(O)cc2)C(=O)N[C@@H](CO)C(=O)N1)C(=O)N[C@@H](Cc1ccccc1)C(=O)N[C@@H](C)C(=O)N[C@@H](C)C(=O)NCCOCCOCC(=O)N[C@@H](CCn1nnc2c1-c1ccccc1CN(C(=O)CCCCCNC(=O)c1ccc3c(c1)C1(OC3=O)c3ccc(O)cc3Oc3cc(O)ccc31)c1ccccc1-2)C(=O)NCC(=O)N[C@@H](CC(=O)O)C(=O)N[C@@H](Cc1ccc(O)cc1)C(=O)N[C@@H](CCCCN)C(=O)N[C@@H](CC(=O)O)C(=O)N[C@@H](CC(=O)O)C(=O)N[C@@H](CC(=O)O)C(=O)N[C@@H](CC(=O)O)C(=O)N[C@@H](CCCCN)C(=O)NCC(N)=O` [L2FAM] ({CH2CO}-YWHKNKYVLTYSCLFAA[AEEA][X1]([Ahx-6FAM])GDYKDDDDKG-NH2; thioether N-13), the Hillslope (H1 ectodomain) is reported as 0.91 and 0.70.
With Cyclo(Ac-YSNNRNWLPHDWQVLYC)G-NH2 [B6] the “ΔTm (°C), crude peptide” value (H1 HA) was 1.6 °C.
For Cyclo(Ac-yAFWIRWTNHYRSGFTC)G-NH2 [B4], the “ΔTm (°C), crude peptide” value (H1 HA) was 2.0 °C and the “Inhibition of infection at a single concentration” value [2] was “strong inhibition of infection”.
With `CC(C)C[C@@H]1NC(=O)[C@H](C(C)C)NC(=O)[C@@H](Cc2ccc(O)cc2)NC(=O)CSC[C@@H](C(=O)NCCOCCOCC(=O)N[C@@H](CCn2nnc3c2-c2ccccc2CN(C(=O)CCCCCNC(=O)c2ccc4c(c2)C2(OC4=O)c4ccc(O)cc4Oc4cc(O)ccc42)c2ccccc2-3)C(=O)NCC(=O)N[C@@H](CC(=O)O)C(=O)N[C@@H](Cc2ccc(O)cc2)C(=O)N[C@@H](CCCCN)C(=O)N[C@@H](CC(=O)O)C(=O)N[C@@H](CC(=O)O)C(=O)N[C@@H](CC(=O)O)C(=O)N[C@@H](CC(=O)O)C(=O)N[C@@H](CCCCN)C(=O)NCC(N)=O)NC(=O)[C@H](C(C)C)NC(=O)[C@H](Cc2c[nH]c3ccccc23)NC(=O)[C@H](Cc2c[nH]cn2)NC(=O)[C@H]([C@@H](C)O)NC(=O)[C@H](C)NC(=O)[C@H](CC(C)C)NC(=O)[C@H]([C@@H](C)O)NC(=O)CNC(=O)[C@H](Cc2c[nH]cn2)NC(=O)[C@H](CC(=O)O)NC(=O)[C@H](Cc2c[nH]c3ccccc23)NC(=O)[C@H](CCCNC(=N)N)NC(=O)[C@H](Cc2ccccc2)NC1=O` [S5FAM] ({CH2CO}-[dY]VLFRWDHGTLATHWVC[AEEA][X1]([Ahx-6FAM])GDYKDDDDKG-NH2; thioether N-17) the Hillslope (H1 ectodomain) was 0.97 and 0.86.
With Cyclo(Ac-yLIWPSFNQNAKIIFPC)G-NH2 [B9] the “ΔTm (°C), crude peptide” value (H1 HA) was 3.6 °C.
In the case of Cyclo(Ac-YYSWFEATGRFRAIFSC)G-NH2 [R4], the “ΔTm (°C), crude peptide” value (H1 HA) is reported as 1.4 °C.
For “Cyclo(Ac-YITRFTPWPKLYPVWDC)G-NH2 (Ac-YITRFTPWPKLYPVWDCG-NH2; bridge N-17; also: cyclized, linkage type not given here) [L1]”, the ΔTm (°C), purified peptide (H1 HA) was 3.8 °C and the “Inhibition of infection at a single concentration” value [2] was “strong inhibition of infection”.
